# Test results published in patent US7276528B2, “Compounds for the inhibition of nitric oxide synthase” (AstraZeneca AB, priority 2001, dated 2007).
# Counter-ions that a name gives are not always drawn.
# Columns and labels:
# Format in all cases: biochemical
# Details in all cases: recombinant human enzyme expressed in E. coli; 60 min pre-incubation with NADPH; 3 μM [3H]arginine
# Recombinant human nNOS = molecular target: T1, Recombinant human nNOS (Homo sapiens, UniProt P29475); test: Screen 2: recombinant human NO synthase inhibition, L-[3H]citrulline formation (nNOS)
# T1 construct: made in house; host or cells: E. coli (lysate)
# T1 sequence (P29475 whole entry): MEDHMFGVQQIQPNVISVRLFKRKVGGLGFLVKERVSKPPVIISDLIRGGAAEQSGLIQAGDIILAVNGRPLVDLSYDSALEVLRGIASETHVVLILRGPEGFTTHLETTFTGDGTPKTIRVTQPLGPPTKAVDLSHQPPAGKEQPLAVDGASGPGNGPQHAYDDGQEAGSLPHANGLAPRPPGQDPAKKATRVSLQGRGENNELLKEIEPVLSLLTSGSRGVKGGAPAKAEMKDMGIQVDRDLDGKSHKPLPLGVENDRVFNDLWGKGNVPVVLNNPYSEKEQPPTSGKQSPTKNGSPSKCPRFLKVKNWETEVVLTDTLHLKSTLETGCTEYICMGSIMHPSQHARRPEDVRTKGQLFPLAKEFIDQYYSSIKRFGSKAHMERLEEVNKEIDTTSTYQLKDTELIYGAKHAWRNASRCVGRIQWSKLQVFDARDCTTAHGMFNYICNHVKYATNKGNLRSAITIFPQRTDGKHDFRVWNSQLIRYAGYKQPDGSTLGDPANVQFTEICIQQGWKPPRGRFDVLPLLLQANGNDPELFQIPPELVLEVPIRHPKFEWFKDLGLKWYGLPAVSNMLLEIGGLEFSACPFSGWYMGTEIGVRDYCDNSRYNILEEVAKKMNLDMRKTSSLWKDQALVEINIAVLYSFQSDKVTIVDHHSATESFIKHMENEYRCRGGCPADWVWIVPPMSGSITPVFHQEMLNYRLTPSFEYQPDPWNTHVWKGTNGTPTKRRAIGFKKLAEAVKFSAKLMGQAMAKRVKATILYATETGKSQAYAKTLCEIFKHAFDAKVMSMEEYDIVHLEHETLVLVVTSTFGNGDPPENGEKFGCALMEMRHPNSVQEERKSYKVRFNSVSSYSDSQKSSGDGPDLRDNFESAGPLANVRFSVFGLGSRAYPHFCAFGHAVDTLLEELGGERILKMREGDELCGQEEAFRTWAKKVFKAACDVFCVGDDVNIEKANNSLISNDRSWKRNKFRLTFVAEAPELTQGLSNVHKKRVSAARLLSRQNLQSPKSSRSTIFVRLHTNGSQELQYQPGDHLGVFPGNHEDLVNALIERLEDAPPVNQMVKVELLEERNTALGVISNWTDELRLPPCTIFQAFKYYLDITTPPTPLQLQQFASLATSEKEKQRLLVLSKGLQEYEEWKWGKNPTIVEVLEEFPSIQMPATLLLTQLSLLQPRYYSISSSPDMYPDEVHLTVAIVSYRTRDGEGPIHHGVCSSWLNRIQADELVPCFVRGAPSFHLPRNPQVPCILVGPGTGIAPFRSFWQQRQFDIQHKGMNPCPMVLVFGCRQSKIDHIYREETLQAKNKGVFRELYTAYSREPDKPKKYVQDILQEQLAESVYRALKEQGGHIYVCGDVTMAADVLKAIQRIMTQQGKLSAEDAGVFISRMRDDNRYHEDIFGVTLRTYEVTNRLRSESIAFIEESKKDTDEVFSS
# Protocol: (§1) Recombinant human NO synthases (iNOS, eNOS & nNOS) were expressed in E. coli and lysates were prepared in Hepes buffer (pH 7.4) containing co-factors (FAD, FMN, H4B), protease inhibitors, lysozyme and the detergent, CHAPS. These preparations were used, at suitable dilution, to assess inhibition of the various isoforms. Inhibition of NOS was determined by measuring the formation of L-[^3H]citrulline from L-[^3H]arginine using an adaptation of the method of Förstermann et al. Enzyme assays were performed in the presence of 3 μM [^3H]arginine, 1 mM NADPH and other co-factors required to support NOS activity (FAD, FMN, H4B, calmodulin, Ca^2+). […] Incubations continued for a further 60 min before the assays were quenched and [^3H]citrulline separated from unreacted substrate by chromatography on Dowex-50 W resin in a 96-well format.
# Recombinant human iNOS = molecular target: T2, Recombinant human iNOS (Homo sapiens, UniProt P35228); test: Screen 2: recombinant human NO synthase inhibition, L-[3H]citrulline formation (iNOS)
# T2 construct: made in house; host or cells: E. coli (lysate)
# T2 sequence (P35228 whole entry): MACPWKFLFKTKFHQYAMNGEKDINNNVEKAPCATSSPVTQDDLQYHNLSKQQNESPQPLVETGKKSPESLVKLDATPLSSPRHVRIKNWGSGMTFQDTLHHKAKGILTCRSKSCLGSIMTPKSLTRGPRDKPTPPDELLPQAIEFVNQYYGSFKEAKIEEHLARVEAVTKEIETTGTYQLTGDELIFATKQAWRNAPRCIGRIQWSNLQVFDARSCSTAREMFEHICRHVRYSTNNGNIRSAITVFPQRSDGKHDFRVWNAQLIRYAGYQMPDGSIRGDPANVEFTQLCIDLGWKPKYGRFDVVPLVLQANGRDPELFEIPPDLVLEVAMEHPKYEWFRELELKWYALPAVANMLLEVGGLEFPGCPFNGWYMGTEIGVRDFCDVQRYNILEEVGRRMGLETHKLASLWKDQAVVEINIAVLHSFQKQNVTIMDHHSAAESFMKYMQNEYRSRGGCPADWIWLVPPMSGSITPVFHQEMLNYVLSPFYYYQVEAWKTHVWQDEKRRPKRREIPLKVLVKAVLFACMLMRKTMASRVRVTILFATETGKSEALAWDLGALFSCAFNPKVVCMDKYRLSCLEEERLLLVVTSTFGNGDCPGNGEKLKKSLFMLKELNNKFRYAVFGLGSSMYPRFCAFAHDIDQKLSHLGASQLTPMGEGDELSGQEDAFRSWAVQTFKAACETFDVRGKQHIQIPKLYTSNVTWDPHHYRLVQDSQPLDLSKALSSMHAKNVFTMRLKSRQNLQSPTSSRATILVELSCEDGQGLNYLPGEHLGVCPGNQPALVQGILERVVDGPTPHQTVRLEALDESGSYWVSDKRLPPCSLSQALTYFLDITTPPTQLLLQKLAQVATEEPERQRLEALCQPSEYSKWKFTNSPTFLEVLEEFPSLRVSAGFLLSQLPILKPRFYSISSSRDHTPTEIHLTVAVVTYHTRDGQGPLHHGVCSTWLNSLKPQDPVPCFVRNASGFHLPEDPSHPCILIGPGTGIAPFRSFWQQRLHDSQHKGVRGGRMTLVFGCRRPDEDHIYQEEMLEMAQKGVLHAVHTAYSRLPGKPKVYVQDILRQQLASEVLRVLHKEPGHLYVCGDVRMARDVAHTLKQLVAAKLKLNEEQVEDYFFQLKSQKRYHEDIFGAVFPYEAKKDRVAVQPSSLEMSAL
# Protocol: as §1
# Recombinant human eNOS = molecular target: T3, Recombinant human eNOS (Homo sapiens, UniProt P29474); test: Screen 2: recombinant human NO synthase inhibition, L-[3H]citrulline formation (eNOS)
# T3 construct: made in house; host or cells: E. coli (lysate)
# T3 sequence (P29474 whole entry): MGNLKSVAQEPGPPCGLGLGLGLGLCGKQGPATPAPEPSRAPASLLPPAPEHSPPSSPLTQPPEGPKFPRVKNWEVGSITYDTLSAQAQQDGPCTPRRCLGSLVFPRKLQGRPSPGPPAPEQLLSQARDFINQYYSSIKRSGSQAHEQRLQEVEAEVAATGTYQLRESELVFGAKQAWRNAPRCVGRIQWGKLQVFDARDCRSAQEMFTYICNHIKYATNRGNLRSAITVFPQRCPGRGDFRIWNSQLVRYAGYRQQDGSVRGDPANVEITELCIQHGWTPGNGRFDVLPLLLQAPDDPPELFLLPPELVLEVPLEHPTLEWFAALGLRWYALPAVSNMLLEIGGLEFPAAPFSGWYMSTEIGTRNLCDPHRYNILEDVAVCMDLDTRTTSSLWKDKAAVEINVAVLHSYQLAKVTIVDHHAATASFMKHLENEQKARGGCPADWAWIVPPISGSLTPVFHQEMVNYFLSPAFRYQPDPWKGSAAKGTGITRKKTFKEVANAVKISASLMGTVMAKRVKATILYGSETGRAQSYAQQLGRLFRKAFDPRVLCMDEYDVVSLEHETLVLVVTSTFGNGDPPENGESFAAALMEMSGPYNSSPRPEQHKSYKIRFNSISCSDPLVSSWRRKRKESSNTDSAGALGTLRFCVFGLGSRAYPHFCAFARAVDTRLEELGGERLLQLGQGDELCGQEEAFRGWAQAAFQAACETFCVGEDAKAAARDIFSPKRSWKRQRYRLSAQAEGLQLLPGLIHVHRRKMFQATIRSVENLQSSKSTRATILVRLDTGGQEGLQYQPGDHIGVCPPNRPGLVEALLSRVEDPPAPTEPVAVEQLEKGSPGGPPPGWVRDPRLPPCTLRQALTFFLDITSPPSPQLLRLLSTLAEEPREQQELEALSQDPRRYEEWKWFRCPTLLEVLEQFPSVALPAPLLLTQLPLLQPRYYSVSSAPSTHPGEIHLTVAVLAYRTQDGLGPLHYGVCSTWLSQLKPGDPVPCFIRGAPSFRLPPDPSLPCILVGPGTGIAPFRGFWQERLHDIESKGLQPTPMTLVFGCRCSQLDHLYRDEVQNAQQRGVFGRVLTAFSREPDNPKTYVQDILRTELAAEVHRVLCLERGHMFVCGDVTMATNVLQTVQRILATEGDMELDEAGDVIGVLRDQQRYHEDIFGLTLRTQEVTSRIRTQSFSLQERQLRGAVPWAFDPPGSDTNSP
SMILES,IC50 (Recombinant human nNOS) [µM],IC50 (Recombinant human iNOS) [µM],IC50 (Recombinant human eNOS) [µM]
"CNCc1cccc(Oc2cc(Cl)ccc2C#N)c1 [Example 10, 4-Chloro-2-(3-methylaminomethyl-phenoxy)-benzonitrile fumarate]",0.0048,0.0029,0.34
"CNCc1ccc(Oc2cc(Cl)ccc2C#N)c2ccccc12 [Example 24, 4-Chloro-2-[4-(methylaminomethyl)naphthalen-1-yloxy]benzonitrile fumarate]",0.039,0.16,5.4
"CN(C)Cc1cccc(Oc2cc(Cl)ccc2C#N)c1 [Example 25, 4-Chloro-2-[3-(dimethylaminomethyl)phenoxy]benzonitrile fumarate]",0.2,0.09,44
